Assay results: patent US20150031668A1, “CHROMAN DERIVATIVES AS TRPM8 INHIBITORS” (AMGEN INC., priority 2013, published 2015)

Target: T1, human TRPM8 (Homo sapiens, UniProt Q7Z2W7)
T1 construct: expressed in transfected cells; host or cells: Chinese hamster ovary (CHO) cells, T-REx tetracycline-inducible expression system (Invitrogen); co-transfected with pcDNA3.1 aequorin
Assay: Luminescence readout assay for measuring intracellular calcium (aequorin, CHO cells expressing human TRPM8; icilin, L-menthol or cold activation)
Format: cell-based
Details: CHO cells expressing human TRPM8, icilin activation (1 μM), aequorin luminescence; read-out: hTRPM8 IC50
Experimental: Luminescence Readout Assay for Measuring Intracellular Calcium
A stable Chinese hamster ovary cell line expressing human TRPM8 was generated using tetracycline inducible T-REx™ expression system from Invitrogen, Inc. (Carlsbad, Calif.). […] Twenty four hours before the assay, cells were seeded in 96-well plates and TRPM8 expression was induced with 0.5 μg/ml tetracycline. On the day of the assay, culture media was removed and cells were incubated with assay buffer
Potential antagonists were added 2.5 min prior to the addition of agonist, 1 μM icilin, 100 μM L-menthol, or 1 min prior to the addition of cold buffer (<10° C.). The luminescence was measured by a CCD camera based FLASH-luminometer built by Amgen, Inc. A cooling device attached to FLASH luminometer was used for cold activation.

T1 sequence (Q7Z2W7 whole entry): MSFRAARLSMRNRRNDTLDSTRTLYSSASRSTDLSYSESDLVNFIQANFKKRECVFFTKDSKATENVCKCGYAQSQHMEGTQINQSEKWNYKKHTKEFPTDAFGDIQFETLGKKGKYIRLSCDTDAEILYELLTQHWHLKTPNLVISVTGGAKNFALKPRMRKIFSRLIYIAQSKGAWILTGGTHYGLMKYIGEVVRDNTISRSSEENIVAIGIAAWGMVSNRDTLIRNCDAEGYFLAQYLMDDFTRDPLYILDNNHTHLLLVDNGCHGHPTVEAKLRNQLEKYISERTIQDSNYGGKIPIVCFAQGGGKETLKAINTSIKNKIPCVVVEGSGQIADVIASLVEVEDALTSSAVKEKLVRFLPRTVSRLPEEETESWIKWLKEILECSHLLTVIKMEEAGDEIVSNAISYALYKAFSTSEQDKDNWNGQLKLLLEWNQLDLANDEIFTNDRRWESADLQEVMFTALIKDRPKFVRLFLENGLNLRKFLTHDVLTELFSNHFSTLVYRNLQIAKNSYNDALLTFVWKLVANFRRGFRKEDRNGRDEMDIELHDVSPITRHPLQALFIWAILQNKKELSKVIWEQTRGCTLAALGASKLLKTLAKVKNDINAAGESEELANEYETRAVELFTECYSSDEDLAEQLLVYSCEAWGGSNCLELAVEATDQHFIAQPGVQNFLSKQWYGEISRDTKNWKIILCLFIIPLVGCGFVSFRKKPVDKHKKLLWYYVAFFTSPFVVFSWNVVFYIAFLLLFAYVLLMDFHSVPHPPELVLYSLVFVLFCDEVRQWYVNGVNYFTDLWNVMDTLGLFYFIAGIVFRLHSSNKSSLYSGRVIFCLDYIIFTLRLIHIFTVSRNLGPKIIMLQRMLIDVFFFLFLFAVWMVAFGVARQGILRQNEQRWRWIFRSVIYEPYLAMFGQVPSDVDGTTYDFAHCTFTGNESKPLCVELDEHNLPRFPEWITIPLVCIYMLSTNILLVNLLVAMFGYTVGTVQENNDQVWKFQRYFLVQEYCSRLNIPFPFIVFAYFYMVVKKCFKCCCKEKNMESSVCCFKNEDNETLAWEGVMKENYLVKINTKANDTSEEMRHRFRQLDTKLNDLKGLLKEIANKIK

SMILES | IC50
O=C(N[C@]1(c2ccc(C(F)(F)F)cc2)CCOc2cccnc21)c1ccccc1 (single isomer, unassigned) [Example 1] | 14 nM
O=C(N[C@]1(c2ccc(C(F)(F)F)cc2)CCOc2cccnc21)c1ccc(F)cc1 (single isomer, unassigned) [Example 2] | 86 nM
O=C(N[C@]1(c2ccc(Cl)c(Cl)c2)CCOc2cccnc21)c1ccccc1 (single isomer, unassigned) [Example 3] | 25 nM
O=C(N[C@]1(c2ccc(C(F)(F)F)cc2)CCOc2cccnc21)c1ccc(O)cc1 (single isomer, unassigned) [Example 4] | 9 nM
COc1ccc(C(=O)N[C@]2(c3ccc(C(F)(F)F)cc3)CCOc3cccnc32)cc1 (single isomer, unassigned) [Example 5] | 21 nM
O=C(N[C@]1(c2ccc(Cl)cc2)CCOc2cccnc21)c1ccccc1 (single isomer, unassigned) [Example 14] | 91 nM
O=C(N[C@]1(c2ccc(Cl)c(F)c2)CCOc2cccnc21)c1ccccc1 (single isomer, unassigned) [Example 15] | 54 nM
O=C(N[C@]1(c2ccc(F)cc2)CCOc2cccnc21)c1ccccc1 (single isomer, unassigned) [Example 16] | 357 nM
O=C(NC1(c2ccc(OC(F)(F)F)c(F)c2)CCOc2cccnc21)c1ccc(F)cc1 (stereo not shown) [Example 6, 4-fluoro-N-(4-(3-fluoro-4-(trifluoromethoxy)phenyl)-3,4-dihydro-2H-pyrano[3,2-b]pyridin-4-yl)benzamide] | 34 nM
O=C(NC1(c2ccc(OC(F)(F)F)c(F)c2)CCOc2cccnc21)c1ccccc1 (stereo not shown) [Example 7, N-(4-(3-fluoro-4-(trifluoromethoxy)phenyl)-3,4-dihydro-2H-pyrano[3,2-b]pyridin-4-yl)benzamide] | 32 nM
O=C(NC1(c2ccc(OC(F)(F)F)cc2)CCOc2cccnc21)c1ccc(F)cc1 (stereo not shown) [Example 8, 4-fluoro-N-(4-(4-(trifluoromethoxy)phenyl)-3,4-dihydro-2H-pyrano[3,2-b]pyridin-4-yl)benzamide] | 75 nM
O=C(NC1(c2ccc(OC(F)(F)F)cc2)CCOc2cccnc21)c1ccccc1 (stereo not shown) [Example 9, N-(4-(4-(trifluoromethoxy)phenyl)-3,4-dihydro-2H-pyrano[3,2-b]pyridin-4-yl)benzamide] | 38 nM
O=C(NC1(c2ccc(Cl)c(Cl)c2)CCOc2cccnc21)c1ccc(F)cc1 (stereo not shown) [Example 10, N-(4-(3,4-dichlorophenyl)-3,4-dihydro-2H-pyrano[3,2-b]pyridin-4-yl)-4-fluorobenzamide] | 163 nM
O=C(NC1(c2ccccc2)CCOc2cccnc21)c1ccc(F)cc1 (stereo not shown) [Example 11, 4-fluoro-N-(4-phenyl-3,4-dihydro-2H-pyrano[3,2-b]pyridin-4-yl)benzamide] | 2570 nM
O=C(NC1(c2ccccc2)CCOc2cccnc21)c1ccccc1 (stereo not shown) [Example 12, N-(4-phenyl-3,4-dihydro-2H-pyrano[3,2-b]pyridin-4-yl)benzamide] | 2070 nM
O=C(NC1(c2ccc(C(F)(F)F)nc2)CCOc2cccnc21)c1ccccc1 (stereo not shown) [Example 13, N-(4-(6-(trifluoromethyl)pyridin-3-yl)-3,4-dihydro-2H-pyrano[3,2-b]pyridin-4-yl)benzamide] | 883 nM

The remaining lines, values ahead:

IC50 | SMILES
12 nM | CC(O)c1ccc(C(=O)N[C@]2(c3ccc(OC(F)(F)F)c(F)c3)CCOc3cccnc32)cc1 (mixture of isomers) [Example 157, N—((S)-4-(3-fluoro-4-(trifluoromethoxy)phenyl)-3,4-dihydro-2H-pyrano[3,2-b]pyridin-4-yl)-4-((R)-1-hydroxyethyl)benzamide and N—((S)-4-(3-fluoro-4-(trifluoromethoxy)phenyl)-3,4-dihydro-2H-pyrano[3,2-b]pyridin-4-yl)-4-((S)-1-hydroxyethyl)benzamide (1:1)]
46 nM | O=C(N[C@]1(c2ccc(OC(F)(F)F)c(F)c2)CCOc2cccnc21)c1ccc(C(O)C(F)(F)F)cc1 (mixture of isomers) [Example 159, N—((S)-4-(3-fluoro-4-(trifluoromethoxy)phenyl)-3,4-dihydro-2H-pyrano[3,2-b]pyridin-4-yl)-4-((R)-2,2,2-trifluoro-1-hydroxyethyl)benzamide and N—((S)-4-(3-fluoro-4-(trifluoromethoxy)phenyl)-3,4-dihydro-2H-pyrano[3,2-b]pyridin-4-yl)-4-((S)-2,2,2-trifluoro-1-hydroxyethyl)benzamide (1:1)]
60 nM | O=C(N[C@]1(c2cccc(OC(F)(F)F)c2)CCOc2cccnc21)c1ccccc1 (single isomer, unassigned) [Example 17]
162 nM | Cc1ccc([C@@]2(NC(=O)c3ccccc3)CCOc3cccnc32)cc1 (single isomer, unassigned) [Example 18]
12 nM | O=C(N[C@]1(c2ccc(C(F)(F)F)c(F)c2)CCOc2cccnc21)c1ccccc1 (single isomer, unassigned) [Example 19]
10 nM | O=C(N[C@]1(c2ccc(C(F)(F)F)cc2)CCOc2cccnc21)c1ccc2[nH]c(=O)oc2c1 (single isomer, unassigned) [Example 20]
1660 nM | O=C(N[C@]1(c2ccc(C(F)(F)F)cc2)CCOc2ccccc21)c1ccccc1 (single isomer, unassigned) [Example 28]
14 nM | O=C(NC1(c2ccc(OC(F)(F)F)cc2)CCOc2cccnc21)c1ccc2[nH]c(=O)oc2c1 (stereo not shown) [Example 22, 2-oxo-N-(4-(4-(trifluoromethoxy)phenyl)-3,4-dihydro-2H-pyrano[3,2-b]pyridin-4-yl)-2,3-dihydrobenzo[d]oxazole-6-carboxamide]
12 nM | O=C(NC1(c2ccc(OC(F)(F)F)cc2)CCOc2cccnc21)c1ccc2oc(=O)[nH]c2c1 (stereo not shown) [Example 23, 2-oxo-N-(4-(4-(trifluoromethoxy)phenyl)-3,4-dihydro-2H-pyrano[3,2-b]pyridin-4-yl)-2,3-dihydrobenzo[d]oxazole-5-carboxamide]
23 nM | O=C(NC1(c2ccc(Cl)c(Cl)c2)CCOc2cccnc21)c1ccc2[nH]c(=O)oc2c1 (stereo not shown) [Example 24, N-(4-(3,4-dichlorophenyl)-3,4-dihydro-2H-pyrano[3,2-b]pyridin-4-yl)-2-oxo-2,3-dihydrobenzo[d]oxazole-6-carboxamide]
19 nM | O=C(NC1(c2ccc(Cl)c(Cl)c2)CCOc2cccnc21)c1ccc2oc(=O)[nH]c2c1 (stereo not shown) [Example 25, N-(4-(3,4-dichlorophenyl)-3,4-dihydro-2H-pyrano[3,2-b]pyridin-4-yl)-2-oxo-2,3-dihydrobenzo[d]oxazole-5-carboxamide]
14 nM | O=C(NC1(c2ccccc2)CCOc2cccnc21)c1ccc2[nH]c(=O)oc2c1 (stereo not shown) [Example 26, 2-oxo-N-(4-phenyl-3,4-dihydro-2H-pyrano[3,2-b]pyridin-4-yl)-2,3-dihydrobenzo[d]oxazole-6-carboxamide]
46 nM | O=C(NC1(c2ccc(C(F)(F)F)nc2)CCOc2cccnc21)c1ccc2oc(=O)[nH]c2c1 (stereo not shown) [Example 27, 2-oxo-N-(4-(6-(trifluoromethyl)pyridin-3-yl)-3,4-dihydro-2H-pyrano[3,2-b]pyridin-4-yl)-2,3-dihydrobenzo[d]oxazole-5-carboxamide]
143 nM | O=C(NC1(c2ccc(C(F)(F)F)cc2)CCCc2cccnc21)c1ccccc1 (stereo not shown) [Example 29, N-(8-(4-(trifluoromethyl)phenyl)-5,6,7,8-tetrahydroquinolin-8-yl)benzamide]
19 nM | COC(=O)c1ccc(C(=O)NC2(c3ccc(OC(F)(F)F)c(F)c3)CCOc3cccnc32)nc1 (stereo not shown) [Example 30, methyl 6-((4-(3-fluoro-4-(trifluoromethoxy)phenyl)-3,4-dihydro-2H-pyrano[3,2-b]pyridin-4-yl)carbamoyl)nicotinate]
784 nM | O=C(NC1(c2ccc(C(F)(F)F)cc2)CCCc2cccnc21)c1ccc(=O)[nH]c1 (stereo not shown) [Example 31, 6-oxo-N-(8-(4-(trifluoromethyl)phenyl)-5,6,7,8-tetrahydroquinolin-8-yl)-1,6-dihydropyridine-3-carboxamide]
51 nM | COc1ccc(C(=O)N[C@]2(c3ccc(C(F)(F)F)cc3)CCOc3cccnc32)cn1 [Example 32, (S)-6-methoxy-N-(4-(4-(trifluoromethyl)phenyl)-3,4-dihydro-2H-pyrano[3,2-b]pyridin-4-yl)nicotinamide]
5 nM | O=C1CCc2cc(C(=O)N[C@]3(c4ccc(C(F)(F)F)cc4)CCOc4cccnc43)ccc2N1 [Example 33, (S)-2-oxo-N-(4-(4-(trifluoromethyl)phenyl)-3,4-dihydro-2H-pyrano[3,2-b]pyridin-4-yl)-1,2,3,4-tetrahydroquinoline-6-carboxamide]
24 nM | O=C(N[C@]1(c2ccc(C(F)(F)F)cc2)CCOc2cccnc21)c1ccc2cn[nH]c2c1 [Example 34, (S)-N-(4-(4-(trifluoromethyl)phenyl)-3,4-dihydro-2H-pyrano[3,2-b]pyridin-4-yl)-1H-indazole-6-carboxamide]
200 nM | O=C(N[C@]1(c2ccc(C(F)(F)F)cc2)CCOc2cccnc21)c1ccncn1 [Example 35, (S)-N-(4-(4-(trifluoromethyl)phenyl)-3,4-dihydro-2H-pyrano[3,2-b]pyridin-4-yl)pyrimidine-4-carboxamide]
36 nM | O=C(N[C@]1(c2ccc(C(F)(F)F)cc2)CCOc2cccnc21)c1ccc2cc[nH]c2c1 [Example 36, (S)-N-(4-(4-(trifluoromethyl)phenyl)-3,4-dihydro-2H-pyrano[3,2-b]pyridin-4-yl)-1H-indole-6-carboxamide]
